How the values were obtained:
Assay type in all cases: functional
CCRF-CEM = test: Cytotoxicity against human CCRF-CEM cells
K562 = test: Cytotoxicity against human K562 cells
MOLT-4 = test: Cytotoxicity against human MOLT4 cells
RPMI-8226 = test: Cytotoxicity against human RPMI8226 cells
A549 = test: Cytotoxicity against human A549 cells
EKVX = test: Cytotoxicity against human EKVX cells
HOP-62 = test: Cytotoxicity against human HOP62 cells
NCI-H226 = test: Cytotoxicity against human NCI-H226 cells
NCI-H23 = test: Cytotoxicity against human NCI-H23 cells
NCI-H322M = test: Cytotoxicity against human NCI-H322M cells
NCI-H460 = test: Cytotoxicity against human NCI-H460 cells
NCI-H522 = test: Cytotoxicity against human NCI-H522 cells
HCC 2998 = test: Cytotoxicity against human HCC2998 cells
HCT-15 = test: Cytotoxicity against human HCT15 cells
HT-29 = test: Cytotoxicity against human HT29 cells
SW-620 = test: Cytotoxicity against human SW620 cells
SF-268 = test: Cytotoxicity against human SF268 cells
SF-539 = test: Cytotoxicity against human SF539 cells
SNB-19 = test: Cytotoxicity against human SNB19 cells
SNB-75 = test: Cytotoxicity against human SNB75 cells
U-251 = test: Cytotoxicity against human U251 cells
LOX IMVI = test: Cytotoxicity against human LOXIMVI cells
Malme-3M = test: Cytotoxicity against human MALME-3M cells
[1] = read-out: pLC50 (the source's name) (converted)

Which GI50 (CCRF-CEM) does the source give for C#C[C@H](O)/C=C/CCCCCCCCCC/C=C\CCCCCCC[C@H](O)C#CC#CC#CCO [TRIANGULYNE A] here?
The GI50 was 170 nM.

And the LC50 (CCRF-CEM)?
The LC50 was 33900 nM.

What about the TGI (CCRF-CEM; read-out: pTGI (converted)) of the same compound?
Its TGI is 776 nM.

And the GI50 (K562)?
The GI50 was 372 nM.

What about the LC50 (K562) of the same compound?
Its LC50 is 37200 nM.

And the TGI (K562; read-out: pTGI (converted))?
The TGI was 2290 nM.

What about the GI50 (MOLT-4) of the same compound?
The GI50 was 209 nM.

What about the CC50 (MOLT-4; [1]) of the same compound?
The CC50 was 67600 nM.

What about the TGI (MOLT-4; read-out: pTGI (converted)) of the same compound?
The TGI was 813 nM.

And the GI50 (RPMI-8226)?
Its GI50 is 30.9 nM.

And the LC50 (RPMI-8226)?
Its LC50 is 100000 nM.

And the TGI (RPMI-8226; read-out: pTGI (converted))?
The TGI was 1000 nM.

What about the GI50 (A549) of the same compound?
The GI50 was 339 nM.

What about the CC50 (A549; [1]) of the same compound?
Its CC50 is 47900 nM.

What about the TGI (A549; read-out: pTGI (converted)) of the same compound?
The TGI was 5750 nM.

And the GI50 (EKVX)?
Its GI50 is 871 nM.

And the CC50 (EKVX; [1])?
Its CC50 is 6760 nM.

And the TGI (EKVX; read-out: pTGI (converted))?
Its TGI is 2400 nM.

And the GI50 (HOP-62)?
The GI50 was 1580 nM.

And the CC50 (HOP-62; [1])?
Its CC50 is 75900 nM.

What about the TGI (HOP-62; read-out: pTGI (converted)) of the same compound?
Its TGI is 5370 nM.

What about the GI50 (NCI-H226) of the same compound?
The GI50 was 603 nM.

And the CC50 (NCI-H226; [1])?
The CC50 was 8130 nM.

What about the TGI (NCI-H226; read-out: pTGI (converted)) of the same compound?
Its TGI is 1910 nM.

What about the GI50 (NCI-H23) of the same compound?
The GI50 was 257 nM.

And the CC50 (NCI-H23; [1])?
The CC50 was 14100 nM.

And the TGI (NCI-H23; read-out: pTGI (converted))?
The TGI was 1290 nM.

What about the GI50 (NCI-H322M) of the same compound?
The GI50 was 3310 nM.

And the CC50 (NCI-H322M; [1])?
The CC50 was 57500 nM.

And the TGI (NCI-H322M; read-out: pTGI (converted))?
Its TGI is 12000 nM.

What about the GI50 (NCI-H460) of the same compound?
Its GI50 is 347 nM.

And the CC50 (NCI-H460; [1])?
Its CC50 is 42700 nM.

And the TGI (NCI-H460; read-out: pTGI (converted))?
Its TGI is 1820 nM.

What about the GI50 (NCI-H522) of the same compound?
The GI50 was 151 nM.

And the CC50 (NCI-H522; [1])?
Its CC50 is 646 nM.

What about the TGI (NCI-H522; read-out: pTGI (converted)) of the same compound?
Its TGI is 380 nM.

What about the GI50 (HCC 2998) of the same compound?
The GI50 was 257 nM.

And the LC50 (HCC 2998)?
The LC50 was 2190 nM.

And the TGI (HCC 2998; read-out: pTGI (converted))?
Its TGI is 692 nM.

And the GI50 (HCT-15)?
The GI50 was 407 nM.

What about the LC50 (HCT-15) of the same compound?
The LC50 was 7240 nM.

What about the TGI (HCT-15; read-out: pTGI (converted)) of the same compound?
Its TGI is 2090 nM.

And the GI50 (HT-29)?
Its GI50 is 363 nM.

And the LC50 (HT-29)?
The LC50 was 3630 nM.

And the TGI (HT-29; read-out: pTGI (converted))?
Its TGI is 1290 nM.

What about the GI50 (SW-620) of the same compound?
The GI50 was 339 nM.

And the LC50 (SW-620)?
Its LC50 is 9330 nM.

What about the TGI (SW-620; read-out: pTGI (converted)) of the same compound?
The TGI was 1290 nM.

And the GI50 (SF-268)?
The GI50 was 347 nM.

And the CC50 (SF-268; [1])?
The CC50 was 12900 nM.

And the TGI (SF-268; read-out: pTGI (converted))?
Its TGI is 3890 nM.

What about the GI50 (SF-539) of the same compound?
The GI50 was 1100 nM.

What about the CC50 (SF-539; [1]) of the same compound?
Its CC50 is 19100 nM.

And the TGI (SF-539; read-out: pTGI (converted))?
Its TGI is 3310 nM.

And the GI50 (SNB-19)?
The GI50 was 3390 nM.

What about the CC50 (SNB-19; [1]) of the same compound?
The CC50 was 52500 nM.

What about the TGI (SNB-19; read-out: pTGI (converted)) of the same compound?
Its TGI is 12000 nM.

And the GI50 (SNB-75)?
The GI50 was 2000 nM.

What about the CC50 (SNB-75; [1]) of the same compound?
Its CC50 is 15800 nM.

And the TGI (SNB-75; read-out: pTGI (converted))?
The TGI was 6610 nM.

And the GI50 (U-251)?
Its GI50 is 813 nM.

And the CC50 (U-251; [1])?
The CC50 was 5250 nM.

And the TGI (U-251; read-out: pTGI (converted))?
Its TGI is 2190 nM.

And the GI50 (LOX IMVI)?
The GI50 was 141 nM.

And the LC50 (LOX IMVI)?
The LC50 was 7940 nM.

And the TGI (LOX IMVI; read-out: pTGI (converted))?
Its TGI is 363 nM.

And the GI50 (Malme-3M)?
Its GI50 is 251 nM.

From ChEMBL document CHEMBL1158270, “Triangulynes A-H and trangulynic acid, new cytotxic polyacetylenes from the marine sponge Pellina triangulata” (1996)
